Data on 21 compounds can be found in PMC7731220, “Pharmacophore Modeling and 3D-QSAR Study of Indole and Isatin Derivatives as Antiamyloidogenic Agents Targeting Alzheimer’s Disease” (Molecules, 2020).

Usually IC50 stands for the point on the concentration scale where inhibition reaches its midpoint.

One experiment deals with T1, human recombinant AChE (Homo sapiens, UniProt P22303).
T1 construct: purchased Sigma Aldrich
The experiment is described as follows: biochemical. The note with it: for inhibition at 10 µM: read-out: hAChE % Inhib. at 10 μM; for IC50: read-out: hAChE IC50.

For experiment [1], the target named is T2, human recombinant monoamine oxidase A (Homo sapiens, UniProt P21397).
T2 construct: purchased Sigma Aldrich; host or cells: baculovirus infected insect cells (microsomes)
T2 sequence (P21397 1-527): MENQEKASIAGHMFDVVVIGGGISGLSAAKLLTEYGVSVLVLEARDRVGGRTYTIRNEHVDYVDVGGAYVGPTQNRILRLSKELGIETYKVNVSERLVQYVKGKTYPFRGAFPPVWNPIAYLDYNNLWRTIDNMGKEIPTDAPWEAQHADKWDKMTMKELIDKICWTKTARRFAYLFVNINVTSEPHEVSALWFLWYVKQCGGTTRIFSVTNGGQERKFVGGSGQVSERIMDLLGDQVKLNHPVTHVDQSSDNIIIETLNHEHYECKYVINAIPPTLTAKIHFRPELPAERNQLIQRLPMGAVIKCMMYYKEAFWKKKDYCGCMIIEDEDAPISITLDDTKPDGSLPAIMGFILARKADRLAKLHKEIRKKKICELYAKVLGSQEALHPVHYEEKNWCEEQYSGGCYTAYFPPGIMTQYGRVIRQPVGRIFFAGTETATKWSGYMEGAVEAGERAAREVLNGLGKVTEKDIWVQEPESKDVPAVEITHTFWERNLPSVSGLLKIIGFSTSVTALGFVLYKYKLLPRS
The experiment is described as follows: Inhibition of monoamine oxidase A (kynuramine). Format: biochemical. As to conditions: for IC50: read-out: hMAO A IC50; for inhibition at 10 µM: read-out: hMAO A % Inhib. at 10 μM.
Protocol: (§1) All assays were performed in 96-well plates (Greiner Bio-One, Kremsmünster, Austria) using an Infinite M1000 Pro plate reader (Tecan, Cernusco s.N., Italy). Inhibition data were obtained as mean ± SD (for single concentration points) or mean ± SEM from three independent experiments (for IC50s), using Prism (GraphPad Prism version 5.00 for Windows, GraphPad Software, San Diego, CA, USA).
(§2) Inhibition of human recombinant monoamine oxidases A (250 U/mg) and B (59 U/mg; microsomes from baculovirus infected insect cells; Sigma Aldrich) was determined as already described [48], measuring the fluorescence of 4-hydroxyquinoline produced by the oxidative deamination of substrate kynuramine.

Experiment [2] addresses T3, human recombinant monoamine oxidase B (Homo sapiens, UniProt P27338).
T3 construct: purchased Sigma Aldrich; host or cells: baculovirus infected insect cells (microsomes)
T3 sequence (P27338 1-520): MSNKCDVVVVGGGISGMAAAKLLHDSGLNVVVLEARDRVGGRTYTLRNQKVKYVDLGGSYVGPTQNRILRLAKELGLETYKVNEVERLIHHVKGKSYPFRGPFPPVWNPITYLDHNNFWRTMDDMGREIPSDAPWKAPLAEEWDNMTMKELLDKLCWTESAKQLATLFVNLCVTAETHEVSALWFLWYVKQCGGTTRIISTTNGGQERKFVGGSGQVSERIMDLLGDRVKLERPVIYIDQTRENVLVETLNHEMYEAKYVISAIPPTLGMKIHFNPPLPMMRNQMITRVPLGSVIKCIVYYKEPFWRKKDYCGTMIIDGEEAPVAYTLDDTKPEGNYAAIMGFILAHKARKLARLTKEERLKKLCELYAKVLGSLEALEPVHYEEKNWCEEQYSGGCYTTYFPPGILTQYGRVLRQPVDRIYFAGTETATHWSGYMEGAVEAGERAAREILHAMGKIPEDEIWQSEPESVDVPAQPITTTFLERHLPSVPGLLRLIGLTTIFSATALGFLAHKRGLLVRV
Kind of experiment: Inhibition of monoamine oxidase B (kynuramine). It counts as biochemical. The note with it: for IC50: read-out: hMAO B IC50; for inhibition at 10 µM: read-out: hMAO B % Inhib. at 10 μM.
Protocol: as §1, §2

In experiment [3] the target is T4, Aβ40 (Homo sapiens, UniProt P05067). Kind of experiment: Inhibition of Aβ40 self-aggregation (thioflavin T fluorescence, 2% HFIP). As to conditions: for inhibition at 100 µM: read-out: Aβ40 Aggregation Inhibition % at 100 μM.
Protocol: All the newly prepared compounds were tested in a routine in vitro assay of inhibition of Aβ40 self-aggregation [25].
as §1
Assay of aggregation of Aβ40 (EzBiolab, Carmel, IN, USA) was performed as described [25], using 2% of 1,1,1,3,3,3-hexafluoro-2-propanol as aggregation enhancer and spectrofluorimetric detection of thioflavin T fluorescence as the probe of amyloid aggregation.
A further experiment addresses T5, tau protein (Homo sapiens, UniProt P10636).
T5 construct: inclusions bodies (IBs) formed by tau full-length protein in bacteria; expressed in transfected cells; host or cells: Escherichia coli BL21 (DE3), plasmids pTARA and pRKT42
Kind of experiment: Tau aggregation inhibition assay in bacterial cells (thioflavin S fluorescence). Format: cell-based, Escherichia coli BL21 (DE3). As to conditions: for inhibition at 10 µM: cell-based assay. The source says: The deposition of aggregates of hyperphosphorylated tau protein constitutes the intracellular neurofibrillary tangles, a major histological evidence of AD. The role of tau hyperphosphorylation and aggregation in AD has established both of them as a target for therapeutic intervention, although only N,N,N′,N′-tetramethyl-10H-phenothiazine-3,7-diaminium (TRX0237, leucomethyl-thioninium), the reduced form of methylene blue dye, acting as an inhibitor of tau aggregation, has reached the clinical phase III [26]. In recent years, some of us developed an efficient cell-based assay of tau aggregation, a simple and inexpensive method that provides a straightforward assay to evaluate the putative anti-aggregation capacity of small molecules. This method relies on the use of bacteria overexpressing amyloid-prone proteins to monitor the amyloid aggregation, thus constituting a physiologically relevant model. In particular, it exploits amyloid properties of the inclusions bodies (IBs) formed by tau full-length protein in bacteria stained by thioflavin S (ThS), a specific amyloid dye, to address the bacterial amyloid aggregation and the effect of anti-amyloid compounds in this polymerization process.
Escherichia coli competent cells BL21 (DE3) were transformed with pTARA containing the RNA-polymerase gen of T7 phage (T7RP) under the control of the promoter PBAD and pRKT42 vector encoding four repeats of tau protein in two inserts. Because of the addition of the initiation codon ATG in front of gene, the over-expressed protein contains an additional methionine residue at its N terminus. Tau anti-aggregating activities of the target compounds were assessed in E. coli cells, as previously described. M9 minimal medium (10 mL) containing 0.5% of glucose, 100 μg/mL of ampicillin and 12.5 μg/mL of chloramphenicol was inoculated with a colony of BL21 (DE3) cells bearing the plasmids. To fresh M9 minimal medium containing 0.5% of glucose, 50 μg/mL of ampicillin, 12.5 μg/mL of chloramphenicol, and 250 µM of ThS, the volume of overnight culture necessary to get a 1:500 dilution was added. The cultures were grown at 37 °C and 250 rpm overnight until cell density reached OD600 = 0.6. A volume of 980 μL of the cultures was transferred into 1.5 mL Eppendorf tubes that contained 10 μL of a solution of the target compound in DMSO and 10 μL of arabinose at 25%, leading to a final inhibitor concentration of 10 μM. The resulting cultures were grown at 37 °C and 1400 rpm with a Thermomixer (Eppendorf, Hamburg, Germany) overnight. The same amount of DMSO without the target compound was added to the sample as a negative control (maximal amount of tau), whereas non-induced samples (in the absence of arabinose) were prepared as positive controls (absence of tau), and to assess the potential intrinsic toxicity of the target compounds. In addition, the absorbance at 600 nm of these samples was assessed to confirm the correct bacterial growth, discarding potential intrinsic toxicity of compounds. To determine the IC50 values, the same protocol was followed but only modifying the initial concentration of compounds. In order to use different final concentrations of compound, we performed a dilutions banc from a stock solution of 100 mM in […].
ThS fluorescence and absorbance were tracked using a DTX 800 plate reader Multimode Detector equipped with a Multimode Analysis Software (Beckman-Coulter, Indianapolis, IN, USA). Filters of 430/35 and 485/20 nm were used for the excitation and emission wavelengths, respectively. 535/25 nm filters were also used for the absorbance determination. It should be stressed that ThS fluorescence normalization was carried out considering as 100% the ThS fluorescence of the bacterial cells expressing tau in the absence of compounds and 0% the ThS fluorescence of the bacterial cells non-expressing tau.

Experiment [4] has as its target T4, Aβ40. The note with it: cited from earlier work.

Structures are written as SMILES. Read-outs that look alike come from different tables or passages of the source.

T5 sequence (P10636 other isoform, or with tags, fused parts or gaps): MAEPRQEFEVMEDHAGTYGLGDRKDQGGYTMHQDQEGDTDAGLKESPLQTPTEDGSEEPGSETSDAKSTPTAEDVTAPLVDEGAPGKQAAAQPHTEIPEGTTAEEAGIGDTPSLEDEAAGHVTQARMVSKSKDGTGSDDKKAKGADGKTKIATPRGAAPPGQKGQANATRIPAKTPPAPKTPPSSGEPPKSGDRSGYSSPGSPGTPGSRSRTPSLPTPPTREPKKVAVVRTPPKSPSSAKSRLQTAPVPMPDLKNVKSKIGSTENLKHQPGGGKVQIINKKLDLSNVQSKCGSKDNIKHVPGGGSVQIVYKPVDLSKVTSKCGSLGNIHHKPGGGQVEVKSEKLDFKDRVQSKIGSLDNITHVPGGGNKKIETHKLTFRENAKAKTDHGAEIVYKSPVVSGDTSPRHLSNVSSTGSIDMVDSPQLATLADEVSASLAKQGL
T4 sequence (P05067 672-711 limits assumed): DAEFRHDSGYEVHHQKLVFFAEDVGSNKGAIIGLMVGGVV
T1 sequence (P22303 32-614): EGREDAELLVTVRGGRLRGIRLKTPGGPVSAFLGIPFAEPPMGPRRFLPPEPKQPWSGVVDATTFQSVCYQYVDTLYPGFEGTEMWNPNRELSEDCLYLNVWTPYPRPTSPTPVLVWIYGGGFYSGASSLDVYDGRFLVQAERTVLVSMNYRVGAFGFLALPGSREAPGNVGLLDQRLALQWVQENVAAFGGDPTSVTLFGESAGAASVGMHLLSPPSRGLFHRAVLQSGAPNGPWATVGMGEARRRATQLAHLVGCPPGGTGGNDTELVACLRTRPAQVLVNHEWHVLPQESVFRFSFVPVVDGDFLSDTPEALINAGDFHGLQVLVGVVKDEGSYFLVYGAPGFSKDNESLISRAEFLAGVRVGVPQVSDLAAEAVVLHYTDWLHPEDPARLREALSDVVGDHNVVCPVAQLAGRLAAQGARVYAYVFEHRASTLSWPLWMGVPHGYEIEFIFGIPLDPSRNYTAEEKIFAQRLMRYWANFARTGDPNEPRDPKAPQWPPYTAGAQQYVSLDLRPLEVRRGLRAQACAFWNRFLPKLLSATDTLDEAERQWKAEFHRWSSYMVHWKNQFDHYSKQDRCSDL
Protocol for human recombinant AChE: as §1

In the case of `Clc1ccc(NN=Cc2c[nH]c3ccccc23)cc1` [Compound 32, 3-((2-(4-Chlorophenyl)hydrazono)methyl)-1H-indole], the inhibition at 10 µM on human recombinant AChE was 41 ± 5%. Also, the IC50 in experiment [1] came out at 0.34 ± 0.01 µM; in experiment [2] it was 0.23 ± 0.03 µM; against Aβ40 [3], 8.4 ± 0.6 µM.

At tau protein, `COc1ccc2c(c1)/C(=N/Nc1ccc(OCc3ccccc3)cc1)C(=O)N2` [Compound S34] registered an inhibition at 10 µM of 16 ± 2%. The “Aβ40 Inhibition % at 100 μM” value on Aβ40 [4] (Table 5) is reported as 20%.

Regarding `COc1ccc2[nH]cc(C=NNc3ccc4ccccc4n3)c2c1` [Compound 35, 2-(2-((5-Methoxy-1H-indol-3-yl)methylene)hydrazineyl)quinoline], the inhibition at 10 µM at human recombinant AChE was found to be 38 ± 2%. The IC50 was determined as 3.8 ± 0.3 µM in experiment [1], 6.5 ± 0.6 µM in experiment [2] and 12 ± 2 µM against Aβ40 [3].

In the case of `O=C1Nc2ccccc2C1=NNc1cccc(OCc2ccccc2)c1` [Compound 6, 3-(2-(3-(Benzyloxy)phenyl)hydrazineylidene)indolin-2-one], the inhibition at 10 µM against tau protein is 14 ± 2%; in experiment [1] it was 23 ± 5%; in experiment [2], 22 ± 4%. For the same compound, the IC50 on human recombinant AChE is 4.2 ± 0.8 µM. Moreover, the inhibition at 100 µM at Aβ40 [3] was found to be 45 ± 6%.

With `COc1ccc2c(c1)C(=O)C(=O)N2CN1CCOCC1` [Compound 13, 5-Methoxy-1-(morpholinomethyl)indoline-2,3-dione], the inhibition at 10 µM at human recombinant AChE is 26 ± 1%; in experiment [1] it was 7 ± 2%. Also, the IC50 in experiment [2] is 4.4 ± 0.1 µM. On Aβ40 [3], the inhibition at 100 µM was 23 ± 5%.

As to `COc1ccc2c(c1)C(=O)C(=O)N2CCc1ccccc1` [Compound 11], the results for the inhibition at 10 µM (at human recombinant AChE; in experiment [1]) were 47 ± 5% and 20 ± 4%, respectively. In addition, the IC50 in experiment [2] amounted to 2.7 ± 0.3 µM; against Aβ40 [3] it was 15 ± 1 µM.

With `COc1ccc2c(c1)/C(=N/Nc1cccc(OCc3ccccc3)c1)C(=O)N2` [Compound S35], the IC50 against tau protein is 10 ± 2 µM. Also, the “Aβ40 Inhibition % at 100 μM” value at Aβ40 [4] (Table 5) is on record as 44%.

On tau protein, `O=C1Nc2ccccc2C1=NN=C1C(=O)Nc2ccccc21` [Compound 4] came in with an inhibition at 10 µM of 17 ± 2%. In addition, the inhibition at 100 µM on Aβ40 [3] turned out to be 31 ± 3%.

For `O=C1Nc2ccccc2C1=NNc1ccc(OCc2ccccc2)cc1` [Compound 8, 3-(2-(4-(Benzyloxy)phenyl)hydrazineylidene)indolin-2-one], the results for the inhibition at 10 µM (against tau protein; in experiment [1]; in experiment [2]) were 35 ± 2%, 8 ± 3% and 36 ± 4%, respectively. Besides, on human recombinant AChE, the IC50 stood at 3.9 ± 0.5 µM. The inhibition at 100 µM at Aβ40 [3] turned out to be 69 ± 3%.

In turn, `O=C1Nc2ccc([N+](=O)[O-])cc2/C1=N/Nc1ccccc1` [Compound S22] yielded an inhibition at 10 µM against tau protein of 15 ± 3%. Also, at Aβ40 [4] (Table 5, symbol), the “Aβ40 Inhibition % at 100 μM” value is listed as “-^c (No inhibition at 100 μM concentration)”. The “% inhib. @ 100 µM” value at Aβ40 [4] (supplement, training set, 100 µM) is listed as -2±7%.

For the compound `COc1ccc2c(c1)C(=NNc1ccc(C(C)C)cc1)C(=O)N2CCN(C)C` [Compound 18, 1-(2-(Dimethylamino)ethyl)-3-(2-(4-isopropylphenyl)hydrazineylidene)-5-methoxyindolin-2-one], the inhibition at 10 µM was 23 ± 1% on human recombinant AChE, 31 ± 4% in experiment [1] and 47 ± 2% in experiment [2]. The compound also yielded an IC50 against Aβ40 [3] of 1.3 ± 0.1 µM.

On Aβ40 [3], `COc1ccc2[nH]cc(C=NNc3ccnc4cc(Cl)ccc34)c2c1` [Compound 36, 7-Chloro-4-(2-((5-methoxy-1H-indol-3-yl)methylene)hydrazineyl)quinoline] showed a half-inhibitory concentration (IC50) of 13 ± 1 µM.

For the compound `CC(C)c1ccc(NN=C2C(=O)N(Cc3ccccc3)c3ccc(O)cc32)cc1` [Compound 19, 1-Benzyl-5-hydroxy-3-(2-(4-isopropylphenyl)hydrazineylidene)indolin-2-one], the inhibition at 10 µM was 31 ± 1% at human recombinant AChE, 18 ± 4% in experiment [1] and 46 ± 5% in experiment [2]. The IC50 on Aβ40 [3] was 1.6 ± 0.3 µM.

On to `CC(C)c1ccc(NN=Cc2[nH]c3ccc(Br)cc3c2Cl)cc1` [Compound 41, 5-Bromo-3-chloro-2-((2-(4-isopropylphenyl)hydrazineylidene)methyl)-1H-indole], for which the inhibition at 100 µM on Aβ40 [3] turned out to be 63 ± 6%.

As to `COc1ccc2[nH]cc(/C=N/Nc3ccc(Cl)cc3)c2c1` [Compound 33], 22 ± 2 µM corresponded to half-maximal inhibition against Aβ40 [3] (IC50).

For `COc1ccc2c(c1)C(=O)C(=O)N2C1CC1` [Compound 14], on Aβ40 [3], the inhibition at 100 µM worked out at 38 ± 5%.

In the case of `COc1ccc2[nH]cc(C=NNc3cccc(Cl)c3)c2c1` [Compound 31, 3-((2-(3-Chlorophenyl)hydrazineylidene)methyl)-5-methoxy-1H-indole], the IC50 at Aβ40 [3] was determined as 9.2 ± 0.7 µM.

Compound `COc1ccc2c(c1)/C(=N/Nc1ccccc1)C(=O)N2` [Compound S23] yielded an IC50 at tau protein of 7.7 ± 1 µM. Further, at Aβ40 [4] (Table 5), the “Aβ40 Inhibition % at 100 μM” value is 52%.

With `O=C1Nc2ccccc2C1=NNc1ccc2ccccc2c1` [Compound 24, 3-(2-(Naphthalen-2-yl)hydrazono)indolin-2-one], the IC50 against Aβ40 [3] was found to be 10 ± 2 µM.

Turning to `O=C1Nc2ccccc2C1=NNc1cccc2ccccc12` [Compound 23, 3-(2-(Naphthalen-1-yl)hydrazono)indolin-2-one], the inhibition at 10 µM at human recombinant AChE is 40 ± 3%. In addition, the IC50 in experiment [1] is 7.1 ± 0.3 µM; in experiment [2], 5.3 ± 0.3 µM; against Aβ40 [3], 4.8 ± 0.5 µM.

For `N/N=C1\C(=O)Nc2ccccc21` [Compound 2], the inhibition at 100 µM at Aβ40 [3] amounted to 17 ± 2%.
